Experiments:
[1] = tested on: human adrenal gland section expressing aldosterone-producing adenoma; assay: In vitro autoradiography using human adrenal adenoma; type: binding
In short: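 Autoradiography readout: PSL in equal-sized ROIs over adenoma (B2) and normal adrenal cortex (B1), expressed as B2/B1 and decay-corrected using half-life, applied activity and plate contact time. Tissue was surgically excised human adrenal, frozen and cut at 7 μm, incubated 10 min with 5-33 kBq/mL tracer in BSA-containing PBS, then imaged after 16-20 h exposure.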

[2] = In vivo kinetics experiment (radioactivity distribution); parameters: species or system Wistar male rat; details: rat; for Adrenal gland/blood ratio of radioactivity accumulation / Adrenal gland/fat ratio of radioactivity accumulation / Adrenal gland/kidney ratio of radioactivity accumulation / Adrenal gland/liver ratio of radioactivity accumulation / Adrenal gland/muscle ratio of radioactivity accumulation / Adrenal gland/small intestine ratio of radioactivity accumulation / Radioactivity distribution Adrenal gland / Radioactivity distribution Bladder (including urine) / Radioactivity distribution Blood / Radioactivity distribution Fat / Radioactivity distribution Femur / Radioactivity distribution Heart / Radioactivity distribution Kidney / Radioactivity distribution Large intestine / Radioactivity distribution Liver / Radioactivity distribution Lung / Radioactivity distribution Muscle (lower limbs) / Radioactivity distribution Remaining whole body / Radioactivity distribution Small intestine / Radioactivity distribution Spleen / Radioactivity distribution Stomach / Radioactivity distribution Testis / Radioactivity distribution Whole brain: caudal vein
In short: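 Tissue radioactivity (% ID/g) and adrenal-to-blood, liver, kidney, small intestine, muscle and fat ratios determined at 10, 30 and 60 min post-dose. Tracers (approximately 1 to 3.7 MBq, saline with 1 w/v % ascorbic acid) injected i.v. into caudal vein of anesthetized 9-week male Wistar rats; organs excised, weighed, counted.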

[3] = Plasma stability evaluation (TLC analysis); type: in vitro ADME; details: 37° C., 60 minutes
Experimental: Evaluation was made using a heparin-treated normal human plasma pool (Kohjin Bio Co., Ltd.). Compounds [^18F] 100, [^18F] 200, [^123I] 400, [^18F] 500, and [^123I] 601 to 610 obtained by the methods shown in Examples 2, 4, 7, 9, 11, 13, 15, 17, 19, 21, 23, 25, 27, and 29 were each added to the aforementioned human plasma (5 mL), and the obtained mixture was then incubated at 37° C. for 60 minutes. Thereafter, the mixture was centrifuged with addition of methanol, so that a deproteinization treatment was carried out. Thereafter, stability was evaluated by TLC analysis. As TLC analysis conditions, the TLC analysis conditions applied upon the above described synthesis of each compound were applied.

## Fc1cc2nc(-c3cncc(Cn4ccnc4)c3)n(CCC[18F])c2cc1Cl [[^18F] 500, 6-Chloro-5-fluoro-1-(3-[^18F]fluoropropyl)-2-[5-(imidazol-1-ylmethyl)pyridin-3-yl]benzimidazole]
[1]; FIGS. 18 to 31
  accumulation of radioactivity in adrenal gland section (autoradiogram): accumulation of radioactivity was selectively observed in a region in which aldosterone-producing adenoma had been pathologically observed
[1]; section of FIG. 17(a)
  B2/B1 accumulation ratio: 5.63
[1]; section of FIG. 17(a), site 71a
  B2 (PSL value, aldosterone-producing adenoma): 3619
[1]; section of FIG. 17(a), site 72a
  B1 (PSL value, normal adrenal cortex): 643
[2]; Tables 9 to 22
  accumulation of radioactivity in adrenal gland vs blood and peripheral tissues: high accumulation of radioactivity in adrenal gland was observed, in comparison to in blood and peripheral tissues
[2]; 10 min after administration
  Adrenal gland/blood ratio of radioactivity accumulation: 158.10 ± 31.05
  Adrenal gland/fat ratio of radioactivity accumulation: 210.51 ± 56.26
  Adrenal gland/kidney ratio of radioactivity accumulation: 14.57 ± 3.27
  Adrenal gland/liver ratio of radioactivity accumulation: 3.45 ± 0.50
  Adrenal gland/muscle ratio of radioactivity accumulation: 74.08 ± 27.27
  Adrenal gland/small intestine ratio of radioactivity accumulation: 13.90 ± 1.21
  Radioactivity distribution Adrenal gland: 18.45 ± 3.39 % ID/g
  Radioactivity distribution Bladder (including urine): 0.86 ± 0.38 % ID/g
  Radioactivity distribution Blood: 0.12 ± 0.02 % ID/g
  Radioactivity distribution Fat: 0.09 ± 0.02 % ID/g
  Radioactivity distribution Femur: 0.25 ± 0.01 % ID/g
  Radioactivity distribution Heart: 0.31 ± 0.03 % ID/g
  Radioactivity distribution Kidney: 1.28 ± 0.08 % ID/g
  Radioactivity distribution Large intestine: 0.23 ± 0.03 % ID/g
  Radioactivity distribution Liver: 5.32 ± 0.21 % ID/g
  Radioactivity distribution Lung: 0.68 ± 0.08 % ID/g
  Radioactivity distribution Muscle (lower limbs): 0.27 ± 0.08 % ID/g
  Radioactivity distribution Remaining whole body: 0.20 ± 0.02 % ID/g
  Radioactivity distribution Small intestine: 1.32 ± 0.13 % ID/g
  Radioactivity distribution Spleen: 0.93 ± 0.10 % ID/g
  Radioactivity distribution Stomach: 0.86 ± 0.06 % ID/g
  Radioactivity distribution Testis: 0.06 ± 0.01 % ID/g
  Radioactivity distribution Whole brain: 0.02 ± 0.00 % ID/g
[2]; 30 min after administration
  Adrenal gland/blood ratio of radioactivity accumulation: 206.39 ± 28.57
  Adrenal gland/fat ratio of radioactivity accumulation: 295.05 ± 101.53
  Adrenal gland/kidney ratio of radioactivity accumulation: 19.08 ± 3.40
  Adrenal gland/liver ratio of radioactivity accumulation: 4.39 ± 0.61
  Adrenal gland/muscle ratio of radioactivity accumulation: 160.44 ± 36.00
  Adrenal gland/small intestine ratio of radioactivity accumulation: 5.99 ± 1.25
  Radioactivity distribution Adrenal gland: 20.88 ± 2.82 % ID/g
  Radioactivity distribution Bladder (including urine): 2.02 ± 1.20 % ID/g
  Radioactivity distribution Blood: 0.10 ± 0.01 % ID/g
  Radioactivity distribution Fat: 0.07 ± 0.02 % ID/g
  Radioactivity distribution Femur: 0.14 ± 0.01 % ID/g
  Radioactivity distribution Heart: 0.25 ± 0.02 % ID/g
  Radioactivity distribution Kidney: 1.10 ± 0.08 % ID/g
  Radioactivity distribution Large intestine: 0.28 ± 0.04 % ID/g
  Radioactivity distribution Liver: 4.76 ± 0.15 % ID/g
  Radioactivity distribution Lung: 0.44 ± 0.02 % ID/g
  Radioactivity distribution Muscle (lower limbs): 0.13 ± 0.01 % ID/g
  Radioactivity distribution Remaining whole body: 0.11 ± 0.01 % ID/g
  Radioactivity distribution Small intestine: 3.54 ± 0.51 % ID/g
  Radioactivity distribution Spleen: 0.41 ± 0.06 % ID/g
  Radioactivity distribution Stomach: 1.11 ± 0.14 % ID/g
  Radioactivity distribution Testis: 0.08 ± 0.01 % ID/g
  Radioactivity distribution Whole brain: 0.01 ± 0.00 % ID/g
[2]; 60 min after administration
  Adrenal gland/blood ratio of radioactivity accumulation: 214.22 ± 75.71
  Adrenal gland/fat ratio of radioactivity accumulation: 371.37 ± 112.38
  Adrenal gland/kidney ratio of radioactivity accumulation: 17.62 ± 3.44
  Adrenal gland/liver ratio of radioactivity accumulation: 7.45 ± 2.80
  Adrenal gland/muscle ratio of radioactivity accumulation: 210.35 ± 70.86
  Adrenal gland/small intestine ratio of radioactivity accumulation: 4.17 ± 1.22
  Radioactivity distribution Adrenal gland: 21.41 ± 4.42 % ID/g
  Radioactivity distribution Bladder (including urine): 3.87 ± 0.37 % ID/g
  Radioactivity distribution Blood: 0.10 ± 0.02 % ID/g
  Radioactivity distribution Fat: 0.06 ± 0.02 % ID/g
  Radioactivity distribution Femur: 0.12 ± 0.03 % ID/g
  Radioactivity distribution Heart: 0.24 ± 0.04 % ID/g
  Radioactivity distribution Kidney: 1.23 ± 0.22 % ID/g
  Radioactivity distribution Large intestine: 0.41 ± 0.09 % ID/g
  Radioactivity distribution Liver: 3.08 ± 0.99 % ID/g
  Radioactivity distribution Lung: 0.48 ± 0.04 % ID/g
  Radioactivity distribution Muscle (lower limbs): 0.11 ± 0.03 % ID/g
  Radioactivity distribution Remaining whole body: 0.10 ± 0.02 % ID/g
  Radioactivity distribution Small intestine: 5.36 ± 1.39 % ID/g
  Radioactivity distribution Spleen: 0.32 ± 0.09 % ID/g
  Radioactivity distribution Stomach: 1.66 ± 0.45 % ID/g
  Radioactivity distribution Testis: 0.11 ± 0.03 % ID/g
  Radioactivity distribution Whole brain: 0.02 ± 0.00 % ID/g
[3]
  stability in human plasma: hardly metabolized and decomposed in the plasma
[3]; TLC analysis
  Radiochemical purity after incubation in human plasma: 88%
